Values of other authors, collected in patent publication US11878081B1, “Pharmaceutical formulations of tafamidis” (TaP Pharmaceuticals, AG, priority 2022, dated 2024).
Where two headings read alike, the source gives them in different places.

Assays:
[1] = as stated by the '116 publication
[2] = 20 mg in 3.0 mL, equilibration 1 h, UHPLC
[3] = capsule formulation of Table B/C, 61 mg, pH 6.8 PBS 900 ml, paddle 50 RPM, 37° C.

| stability [1] | concentration of tafamidis in saturated solution (solubility) ([2]; FaSSIF) [µg/mL] | concentration of tafamidis in saturated solution (solubility) ([2]; FeSSIF) [µg/mL] | concentration of tafamidis in saturated solution (solubility) ([2]; SGF) [µg/mL] | Cumulative drug release ([3]; 0 min) [%] | Cumulative drug release ([3]; 5 min) [%] | Cumulative drug release ([3]; 10 min) [%] | Cumulative drug release ([3]; 15 min) [%] | Cumulative drug release ([3]; 20 min) [%] | Cumulative drug release ([3]; 30 min) [%] | Cumulative drug release ([3]; 45 min) [%] | Cumulative drug release ([3]; 60 min) [%] | solubility [1] | stability ([1]; listed as tafamidis form 1) | SMILES |
| --- | --- | --- | --- | --- | --- | --- | --- | --- | --- | --- | --- | --- | --- | --- |
| unstable | – | – | – | – | – | – | – | – | – | – | – | – | – | O=C(O)c1ccc2nc(-c3cc(Cl)cc(Cl)c3)oc2c1 [form 4, 2-(3,5-dichlorophenyl)-1,3-benzoxazole-6-carboxylic acid] |
| – | 9.0 | 0.6 | 1.5 | 0.0 | 14.0 | 27.3 | 29.1 | 28.1 | 27.6 | 26.8 | 21.8 | low solubility | more stable than forms 2, 4, and 6 | O=C(O)c1ccc2nc(-c3cc(Cl)cc(Cl)c3)oc2c1 [‘441 patent's tafamidis crystal form 1, 2-(3,5-dichlorophenyl)-1,3-benzoxazole-6-carboxylic acid] |
